In publication PMC6026081 (Bioorganic & medicinal chemistry letters, 2017):
pIC50: −log10 of the molar value.

How the values were obtained:
[1] = Kinetic solubility by nephelometry; assay type: physicochemical; conditions: concentration range; for Sol2.0: 0.01 M HCl (approx. pH 2.0); for Sol6.5: pH 6.5 phosphate buffer
[2] = Cytotoxicity, growth inhibition of HEK293 cells; assay type: cell-based; conditions: human, HEK293 cells (kidney)
[3] = Cytotoxicity, growth inhibition of U-20S cells; assay type: cell-based; conditions: human
[4] = Plasma exposure after single oral dose in non-infected mice; assay type: in vivo, male Swiss outbred mice; conditions: single 100 mg/kg oral dose; for plasma concentration maintained over the 48 h sampling period / plasma concentration by ~18 h post-dose: non-infected mice; for plasma concentration maintained over the 48 h sampling period: up to 48 h post-dose; for systemic exposure (AUC to last measured concentration) relative to 1: fold higher than 1
[5] = Cytotoxicity, growth inhibition of HC-04 cells; assay type: cell-based; conditions: human, HC-04 cells (hepatocyte)
[6] = cited from earlier work
[7] = 46.3 mg/kg oral dose; cited from earlier work
[8] = test system: ex vivo S. mansoni; conditions: cited from earlier work
[9] = test system: S. mansoni; conditions: 400 mg/kg dose; cited from earlier work

## O=C(Nc1ccc(F)c(C(F)(F)F)c1)Nc1ccc(F)c(C(F)(F)F)c1 [Compd 1]
[1]
  Sol2.0: <1.6/<1.6 μg/mL
  Sol6.5: <1.6/<1.6 μg/mL
[2]
  pIC50: < 4.00
[3]
  pIC50: < 4.00
[4]
  plasma concentration maintained over the 48 h sampling period: above 1 μM
[5]
  pIC50: < 4.00

## O=C(Nc1ccnc(C(F)(F)F)c1)Nc1ccnc(C(F)(F)F)c1 [Compd 2]
[1]
  Sol2.0: 12.5–25/12.5–25 μg/mL
  Sol6.5: 12.5–25/12.5–25 μg/mL
[2]
  pIC50: < 4.00
[3]
  pIC50: < 4.00
[4]
  systemic exposure (AUC to last measured concentration) relative to 1: 2–4 fold
[5]
  pIC50: < 4.00

## O=C(Nc1ccncc1)Nc1ccncc1 [Compd 3]
[1]
  Sol6.5: 12.5 to 25 µg/mL

## O=C(Nc1cnccn1)Nc1cnccn1 [Compd 4]
[1]
  Sol2.0: 6.3–12.5/6.3–12.5 μg/mL
  Sol6.5: 6.3–12.5/6.3–12.5 μg/mL

## O=C(Nc1ccc2c(c1)OC(F)(F)O2)Nc1ccc2c(c1)OC(F)(F)O2 [Compd 5]
[1]
  Sol2.0: <1.6/<1.6 μg/mL
  Sol6.5: <1.6/<1.6 μg/mL
[2]
  pIC50: < 4.00
[3]
  pIC50: < 4.00
[4]
  plasma concentration maintained over the 48 h sampling period: > 5 µM
[5]
  pIC50: < 4.00

## O=C(Nc1ccncc1)Nc1ccc(F)c(C(F)(F)F)c1 [Compd 6]
[1]
  Sol2.0: 6.3–12.5/6.3–12.5 μg/mL
  Sol6.5: 6.3–12.5/6.3–12.5 μg/mL

## O=C(Nc1cccnc1)Nc1ccc(F)c(C(F)(F)F)c1 [Compd 7]
[1]
  Sol2.0: 50 to 100 µg/mL
  Sol6.5: 12.5 to 25 µg/mL

## O=C(Nc1ccc(F)c(C(F)(F)F)c1)Nc1ccccn1 [Compd 8]
[1]
  Sol2.0: 1.6 to 3.1 µg/mL

## O=C(Nc1ccc(F)c(C(F)(F)F)c1)Nc1cnccn1 [Compd 9]
[1]
  Sol2.0: 1.6 to 3.1 µg/mL

## Cc1cc(NC(=O)Nc2ccc(F)c(C(F)(F)F)c2)on1 [Compd 10]
[1]
  Sol2.0: 12.5 to 25 µg/mL
  Sol6.5: 6.3 to 12.5 µg/mL

## O=C(Nc1ccc(C(=O)O)cc1)Nc1ccc(F)c(C(F)(F)F)c1 [Compd 11]
[1]
  Sol6.5: 12.5 to 25 µg/mL

## O=C(Nc1cccc(C(=O)O)c1)Nc1ccc(F)c(C(F)(F)F)c1 [Compd 12]
[1]
  Sol2.0: 1.6 to 3.1 µg/mL
  Sol6.5: 12.5 to 25 µg/mL

## NC(=O)c1ccc(NC(=O)Nc2ccc(F)c(C(F)(F)F)c2)cc1 [Compd 13]
[1]
  Sol2.0: 6.3–12.5/6.3–12.5 μg/mL
  Sol6.5: 6.3–12.5/6.3–12.5 μg/mL

## NC(=O)c1ccccc1NC(=O)Nc1ccc(F)c(C(F)(F)F)c1 [Compd 14]
[1]
  Sol2.0: 1.6–3.1/1.6–3.1 μg/mL
  Sol6.5: 1.6–3.1/1.6–3.1 μg/mL

## N#Cc1ccc(NC(=O)Nc2ccc(F)c(C(F)(F)F)c2)cc1 [Compd 15]
[1]
  Sol2.0: <1.6/<1.6 μg/mL
  Sol6.5: <1.6/<1.6 μg/mL
[2]
  pIC50: < 4.00
[3]
  pIC50: < 4.00
[4]
  plasma concentration by ~18 h post-dose: below 1 μM
[5]
  pIC50: < 4.00

## CC(=O)c1ccc(NC(=O)Nc2ccc(F)c(C(F)(F)F)c2)cc1 [Compd 16]
[1]
  Sol2.0: <1.6/<1.6 μg/mL
  Sol6.5: <1.6/<1.6 μg/mL

## O=C(Nc1ccc2c(c1)OC(F)(F)O2)Nc1ccc(F)c(C(F)(F)F)c1 [Compd 17]
[1]
  Sol2.0: <1.6/<1.6 μg/mL
  Sol6.5: <1.6/<1.6 μg/mL
[2]
  pIC50: < 4.00
[3]
  pIC50: < 4.00
[4]
  plasma concentration maintained over the 48 h sampling period: > 5 µM
[5]
  pIC50: < 4.00

## O=C(Nc1ccnc(C(F)(F)F)c1)Nc1ccc(F)c(C(F)(F)F)c1 [Compd 18]
[1]
  Sol2.0: 3.1–6.3/3.1–6.3 μg/mL
  Sol6.5: 3.1–6.3/3.1–6.3 μg/mL
[2]
  pIC50: < 4.00
[3]
  pIC50: < 4.00
[4]
  systemic exposure (AUC to last measured concentration) relative to 1: 2–4 fold
[5]
  pIC50: < 4.00

## N#Cc1ccc(NC(=O)Nc2ccnc(C(F)(F)F)c2)cc1 [Compd 19]
[1]
  Sol2.0: 1.6–3.1/1.6–3.1 μg/mL
  Sol6.5: 1.6–3.1/1.6–3.1 μg/mL
[2]
  pIC50: < 4.00
[3]
  pIC50: < 4.00
[4]
  plasma concentration by ~18 h post-dose: below 1 μM
[5]
  pIC50: < 4.00

## O=C(Nc1ccnc(C(F)(F)F)c1)Nc1ccc2c(c1)OC(F)(F)O2 [Compd 20]
[1]
  Sol2.0: 3.1–6.3/3.1–6.3 μg/mL
  Sol6.5: 3.1–6.3/3.1–6.3 μg/mL
[2]
  pIC50: < 4.00
[3]
  pIC50: < 4.00
[4]
  plasma concentration maintained over the 48 h sampling period: > 5 µM
[5]
  pIC50: < 4.00

## O=C(Nc1ccc(Cl)c(Cl)c1)Nc1ccc(Cl)c(Cl)c1 [MMV665852]
[6]
  LogD7.4: 5.2
[7]
  half-life: 4.7 h
[8]
  in vitro selectivity index: 64 fold
  potency against ex vivo S. mansoni relative to praziquantel (fold less potent): 4 fold

## O=C(C1CCCCC1)N1CC(=O)N2CCc3ccccc3C2C1 (stereo not shown) [praziquantel]
[9]
  worm burden reduction: 96%
